These molecules were tested against T1, Dopamine beta-hydroxylase (Bos taurus, UniProt P15101) (assay: Compound was evaluated for the inhibition of Dopamine beta hydroxylase at pH 6.6).
T1 sequence (P15101 whole entry): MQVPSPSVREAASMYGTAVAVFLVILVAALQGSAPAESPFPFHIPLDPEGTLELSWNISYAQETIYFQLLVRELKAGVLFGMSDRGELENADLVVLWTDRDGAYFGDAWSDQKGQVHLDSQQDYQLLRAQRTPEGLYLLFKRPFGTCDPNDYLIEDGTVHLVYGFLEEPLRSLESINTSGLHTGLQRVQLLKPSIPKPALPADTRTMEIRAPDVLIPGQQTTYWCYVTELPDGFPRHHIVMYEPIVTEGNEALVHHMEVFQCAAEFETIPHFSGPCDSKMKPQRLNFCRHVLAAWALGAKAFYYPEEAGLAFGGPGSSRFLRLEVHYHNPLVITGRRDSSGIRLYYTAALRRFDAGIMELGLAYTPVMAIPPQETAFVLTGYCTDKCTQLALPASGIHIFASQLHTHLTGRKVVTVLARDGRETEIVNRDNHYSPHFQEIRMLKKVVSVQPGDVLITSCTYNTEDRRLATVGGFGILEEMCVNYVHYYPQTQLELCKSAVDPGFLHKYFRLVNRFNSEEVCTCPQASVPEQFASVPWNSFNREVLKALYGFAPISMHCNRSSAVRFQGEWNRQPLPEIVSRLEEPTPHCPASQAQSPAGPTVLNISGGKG
`Cn1cc[nH]c1=S` [METHIMAZOLE] was tested, and the Ki was 716 µM.

The molecules below were run against T1, Dopamine beta-hydroxylase (assay: Inhibition of Dopamine beta hydroxylase.).
Work on `COc1ccc(CCn2ccnc2S)cc1` yielded an IC50 of 68 µM.
Molecule `COc1ccc(CCCCCn2cc[nH]c2=S)cc1` has an IC50 of 109 µM.
With `S=c1[nH]ccn1CCSc1ccccc1` the IC50 was 103 µM.
`Sc1nccn1CCCc1ccccc1` was tested, and the IC50 was 16 µM.
With `CC(CCc1ccccc1)n1ccnc1S` (configuration not stated) the IC50 was 325 µM.
`Oc1ccc(Cn2cc[nH]c2=S)cc1` gave an IC50 of 2.6 µM.
For `Cn1cc[nH]c1=S` [METHIMAZOLE], the IC50 was 754 µM.
`COc1ccc(CCCCn2cc[nH]c2=S)cc1` was tested, and the IC50 was 152 µM.
`COc1ccc(CCCn2cc[nH]c2=S)cc1` showed an IC50 of 180 µM.
With `COc1ccc(Cn2cc[nH]c2=S)cc1` the IC50 was 202 µM.
`CC(Cc1ccccc1)Cn1cc[nH]c1=S` (configuration not stated) was tested, and the IC50 was 29 µM.
`Oc1ccc(CCCn2cc[nH]c2=S)cc1` showed an IC50 of 2.2 µM.
`Oc1ccc(-n2ccnc2S)cc1` showed an IC50 of 370 µM.
In the case of `Sc1nccn1-c1ccccc1`, the IC50 is reported as 110 µM.
For `Oc1ccc(CCn2cc[nH]c2=S)cc1`, the IC50 was 23 µM.
Molecule `CC(CCn1cc[nH]c1=S)c1ccccc1` (configuration not stated) has an IC50 of 18 µM.
In the case of `S=c1[nH]ccn1CCOc1ccccc1`, the IC50 is reported as 87 µM.
Work on `S=c1[nH]ccn1Cc1ccccc1` yielded an IC50 of 32 µM.

What follows are molecules tested against T1, Dopamine beta-hydroxylase (assay: Compound was evaluated for the inhibition of Dopamine beta hydroxylase at pH 4.5).
In the case of `Cn1cc[nH]c1=S` [METHIMAZOLE], the Ki is reported as 45 µM.

The molecules below were run against T2, Dopamine beta-hydroxylase (Bos taurus) (UniProt P15101) (assay: Inhibition of Dopamine beta hydroxylase at a concentration of 10e-4 M.).
T2 sequence (whole entry): T1 sequence (P15101 whole entry)
For `COc1ccc(-n2ccnc2S)cc1`, the inhibition was 25%.
`OC(Cc1ccccc1)Cn1ccnc1S` (configuration not stated) gave an inhibition of 5%.
For `NCC(c1ccccc1)n1ccnc1S` (configuration not stated), the inhibition was 0%.
Molecule `Oc1ccc(CCCCn2ccnc2S)cc1` has an inhibition of 12%.
`NC(=O)C(c1ccccc1)n1ccnc1S` (configuration not stated) gave an inhibition of 4%.
Molecule `O=S(=O)(CCn1ccnc1S)c1ccccc1` has an inhibition of 5%.

The molecules below were run against T2, Dopamine beta-hydroxylase (Bos taurus) (assay: Compound was evaluated for the inhibition of Dopamine beta hydroxylase at a concentration of 10e-4 M.).
`Oc1ccc(CCCCCn2ccnc2S)cc1` was tested, and the inhibition was 30%.

Reference: ChEMBL document CHEMBL1123383, “Multisubstrate inhibitors of dopamine beta-hydroxylase. 1. Some 1-phenyl and 1-phenyl-bridged derivatives of imidazole-2-thione” (J Med Chem, 1986)
